From patent US20220227773A1, “FUSED RING COMPOUND, PREPARATION METHOD THEREFOR AND USE THEREOF” (SHANGHAI INSTITUTE OF MATERIA MEDICA, CHINESE ACADEMY OF …, priority 2019, published 2022)
Structures can show the parent of a compound that is named as a salt. Where two headings read alike, the source gives them in different places.

Assays:
[1] = biological target: T1, hSERT (5-HTT) in HEK293-hSERT cells (Homo sapiens, UniProt P31645); assay: 5-HTT reuptake activity assay (fluorescence neurotransmitter transporter uptake kit); type: cell-based; conditions: serotonin reuptake inhibition
T1 construct: expressed in transfected cells; host or cells: HEK293

[2] = tested on: mice; assay: Forced swimming test (FST) in mice; type: in vivo; conditions: Mus musculus
Procedure: 3. In Vivo Drug Efficacy Test (Mouse Forced Swimming Model)
Experimental animals: C57BL/6 mice (Shanghai Xipuer-Bikai Experimental Animal Co., Ltd.), male, 6 weeks old, weighing 15-20 g. ICR mice (Shanghai Xipuer-Bikai Experimental Animal Co., Ltd.), male, 6 weeks old, weighing 20-25 g. All the ordered mice were fed in a standard environment for 2-3 weeks before test.
Forced Swimming Test (FST): in the forced swimming apparatus, the water level is 45 cm, and the water temperature is 25° C. Before the experiment, the mice were placed in the experimental room for 1 h for adapting to the environment. At the beginning of the experiment, the mice were placed in the apparatus for 6min, and the whole process was recorded with a camera. When analyzing the data, only the immobility time of the mice in the last 4 min was counted, and the result was expressed by mean±SD.
The results were analyzed by one-way analysis of variance. […] FST: Forced swimming test; TST: Tail suspension test.

[3] = biological target: T2, human recombinant 5-HT3 receptor (Homo sapiens, UniProt P46098); assay: 5-HT3 receptor affinity assay (3H-BRL 43694 radioligand binding); conditions: read-out: inhibition (%) at 1 μM
T2 construct: expressed in transfected cells; host or cells: HEK293 (membrane preparation)
T2 sequence (P46098 24-478): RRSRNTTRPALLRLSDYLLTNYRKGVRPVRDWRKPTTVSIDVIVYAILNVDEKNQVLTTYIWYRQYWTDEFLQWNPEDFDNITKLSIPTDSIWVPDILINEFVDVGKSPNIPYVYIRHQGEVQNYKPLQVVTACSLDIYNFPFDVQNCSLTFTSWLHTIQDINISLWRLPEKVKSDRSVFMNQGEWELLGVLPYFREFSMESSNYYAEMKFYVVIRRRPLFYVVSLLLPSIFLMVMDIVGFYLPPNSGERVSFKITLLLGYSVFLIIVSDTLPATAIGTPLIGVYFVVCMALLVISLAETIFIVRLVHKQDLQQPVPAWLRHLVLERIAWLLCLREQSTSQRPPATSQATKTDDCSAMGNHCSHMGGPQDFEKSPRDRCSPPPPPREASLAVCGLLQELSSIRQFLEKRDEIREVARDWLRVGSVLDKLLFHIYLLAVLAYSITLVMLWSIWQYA

[4] = po, FST, dose significantly reducing immobility time of mice, read-out: Effective dose
[5] = ip, read-out: Effective dose (mg/kg)

T1 sequence (P31645 whole entry): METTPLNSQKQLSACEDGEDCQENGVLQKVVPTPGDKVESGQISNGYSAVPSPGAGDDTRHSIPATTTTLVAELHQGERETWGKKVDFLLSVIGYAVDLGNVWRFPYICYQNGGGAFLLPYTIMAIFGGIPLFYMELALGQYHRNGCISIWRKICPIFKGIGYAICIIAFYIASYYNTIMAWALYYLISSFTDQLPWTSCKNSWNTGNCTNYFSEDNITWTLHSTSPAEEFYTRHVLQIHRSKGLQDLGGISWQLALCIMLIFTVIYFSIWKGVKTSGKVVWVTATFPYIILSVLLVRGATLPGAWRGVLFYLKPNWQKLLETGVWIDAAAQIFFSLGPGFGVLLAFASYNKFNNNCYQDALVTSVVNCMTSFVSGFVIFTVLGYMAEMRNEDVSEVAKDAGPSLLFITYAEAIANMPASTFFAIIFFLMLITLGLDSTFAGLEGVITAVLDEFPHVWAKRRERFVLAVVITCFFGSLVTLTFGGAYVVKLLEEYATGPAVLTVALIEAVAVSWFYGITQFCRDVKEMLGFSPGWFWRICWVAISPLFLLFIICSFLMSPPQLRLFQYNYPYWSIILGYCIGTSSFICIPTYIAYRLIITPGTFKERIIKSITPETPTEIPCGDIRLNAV

| Compound | IC50 [1] | further results |
| --- | --- | --- |
| CN1CC2CN(c3cccc4c3CCC(=O)N4)CC2C1 (centres unmarked) [Example 93, 5-(5-methylhexahydropyrrolo[3,4-c]pyrrol-2(1H)-yl)-3,4-dihydroquinolin-2(1H)-one dihydrochloride] | < 200 nM |  |
| CN1CC2CN(c3ccc4cc(F)ccc4c3)CC2C1.O=C(O)/C=C\C(=O)O (centres unmarked) [Example 30, 2-(6-fluoronaphthalen-2-yl)-5-methyloctahydropyrrolo[3,4-c]pyrrole maleate] | < 10 nM | minimal effective dose [2, 4]: 20 mg/kg |
| c1ccc2cc(N3CC4CCNCCC4C3)ccc2c1 (centres unmarked) [Example 6, 2-(naphthalen-2-yl)decahydropyrrolo[3,4-d]azepine maleate] | < 200 nM |  |
| CN(C)CCCC1(c2ccc(F)cc2)OCc2cc(C#N)ccc21 (centres unmarked) [Citalopram, reference compound] |  | minimal effective dose [2, 4]: 20 mg/kg |
| Cc1cccc(N2CC3CNCC3C2)c1C (centres unmarked) [Example 66, 2-(2,3-dimethylphenyl)octahydropyrrolo[3,4-c]pyrrole maleate] | < 50 nM |  |
| Clc1ccc(C2=CC3CNCC3C2)cc1Cl (centres unmarked) [Example 9, 5-(3,4-chlorophenyl)-1,2,3,3a,4,6a-hexahydrocyclopenta[c]pyrrole hydrochloride] | < 200 nM |  |
| CN1CC2CCN(c3ccc4sccc4c3)C2C1 (centres unmarked) [Example 65, 1-(Benzothiophen-5-yl)-5-methyloctahydropyrrolo[3,4-b]pyrrole oxalate] | < 50 nM |  |
| CN1CC2CN(c3cccc4ccccc34)CC2C1 (centres unmarked) [Example 26, 2-methyl-5-(naphthalen-1-yl)octahydropyrrolo[3,4-c]pyrrole oxalate] | < 200 nM | inhibition at 1 µM ([3]; 1 μM compound, 0.5 nM 3H-BRL 43694, HEK293 membranes): 76% |
| O=C(O)/C=C\C(=O)O.c1cc2cc(N3CC4CNCC4C3)ccc2o1 (centres unmarked) [Example 21, 2-(Benzofuran-5-yl)octahydropyrrolo[3,4-c]pyrrole maleate] | < 50 nM | minimal effective dose [2, 5]: 3 mg/kg |
| Fc1cc(N2CC3CNCC3C2)cc2sccc12 (centres unmarked) [Example 68, 2-(4-fluorobenzo[b]thiophen-6-yl)octahydropyrrolo[3,4-c]pyrrole dihydrochloride] | < 200 nM |  |
| c1cc(N2CC3CCNCCC3C2)c2sccc2c1 (centres unmarked) [Example 43, 2-(Benzo[b]thiophen-7-yl)decahydropyrrolo[3,4-d]azepine maleate] | < 50 nM |  |
| CN1CC2CN(c3cc4ccccc4cc3F)CC2C1 (centres unmarked) [Example 76, 2-(3-fluoronaphthalen-2-yl)-5-methyloctahydropyrrolo [3,4-c]pyrrole dihydrochloride] | < 50 nM |  |
| CN1CC2C=C(c3cccc4ccccc34)CC2C1 (centres unmarked) [Example 71, 2-methyl-5-(naphthalen-1-yl)-1,2,3,3a,4,6a-hexahydrocyclopenta[c]pyrrole] | < 50 nM |  |
| c1cc2cc(N3CCC4CNCC43)ccc2s1 (centres unmarked) [Example 64, 1-(Benzothiophen-5-yl)octahydropyrrolo[3,4-b]pyrrole maleate] | < 50 nM |  |
| CN1CC2C=C(c3ccc4ccccc4c3)CC2C1 (centres unmarked) [Example 57, 2-methyl-5-(naphthalen-2-yl)-1,2,3,3a,4,6a-hexahydrocyclopenta[c]pyrrole] | < 50 nM |  |
| Fc1cc(N2CC3CNCC3C2)c2ccsc2c1 (centres unmarked) [Example 69, 2-(6-fluorobenzothiophen-4-yl)octahydropyrrolo[3,4-c]pyrrole dihydrochloride] | < 200 nM | minimal effective dose [2, 5]: 10 mg/kg |
| CN1CC2C=C(c3cc4ccccc4s3)CC2C1 (centres unmarked) [Example 61, 5-(Benzothiophen-2-yl)-2-methyl-1,2,3,3a,4,6a-hexahydrocyclopenta[c]pyrrole hydrochloride] | < 50 nM |  |
| Cc1cccc(N2CC3CN(C)CC3C2)c1C (centres unmarked) [Example 67, 2-(2,3-dimethylphenyl)-5-methyloctahydropyrrolo[3,4-c]pyrrole oxalate] | < 200 nM |  |

| Compound | IC50 [1] | further results |
| --- | --- | --- |
| CN1CC2CN(c3cc(F)cc4sccc34)CC2C1 (centres unmarked) [Example 70, 2-(6-fluorobenzothiophen-4-yl)-5-methyloctahydropyrrolo[3,4-c]pyrrole oxalate] | < 50 nM |  |
| Clc1ccc(N2CCC3CNCC3CC2)c(Cl)c1 (centres unmarked) [Example 90, 6-(2,4-dichlorophenyl)decahydropyrrolo[3,4-d]azepine hydrochloride] | < 50 nM |  |
| C1=C(c2ccc3ccccc3c2)CC2CNCC12 (centres unmarked) [Example 54, 5-(naphthalen-2-yl)-1,2,3,3a,4,6a-hexahydrocyclopenta[c]pyrrole hydrochloride] | < 50 nM |  |
| C1=C(c2cccc3ccccc23)CC2CNCC12 (centres unmarked) [Example 56, 5-(naphthalen-1-yl)-1,2,3,3a,4,6a-hexahydrocyclopenta[c]pyrrole dihydrochloride] | < 50 nM |  |
| O=C(O)/C=C\C(=O)O.c1cc2ccc(N3CC4CNCC4C3)cc2s1 (centres unmarked) [Example 19, 2-(Benzo[b]thiophen-6-yl)octahydropyrrolo[3,4-c]pyrrole maleate] | < 10 nM | minimal effective dose [2, 5]: 10 mg/kg |
| C1=C(c2cccc3ccsc23)CC2CNCC12 (centres unmarked) [Example 48, 5-(Benzothiophen-7-yl)-1,2,3,3a,4,6a-hexahydrocyclopenta[c]pyrrole hydrochloride] | < 50 nM |  |
| CNCC[C@H](Oc1cccc2ccccc12)c1cccs1 [Duloxetine, reference compound] |  | minimal effective dose ([2]; po, read-out: Effective dose (mg/kg)): 20 mg/kg |
| CN1CC2CN(c3c(F)cc4ccccc4c3F)CC2C1 (centres unmarked) [Example 75, 2-(1,3-difluoronaphthalen-2-yl)-5-methyloctahydropyrrolo[3,4-c]pyrrole dihydrochloride] | < 100 nM |  |
| c1ccc2c(C3CC4CNCC4C3)cccc2c1 (centres unmarked) [Example 8, 5-(naphthalen-1-yl)octahydrocyclopenta[c]pyrrole hydrochloride] | < 200 nM |  |
| CN1CC2CC(c3cc4ccccc4s3)CC2C1 (centres unmarked) [Example 62, 5-(benzothiophen-2-yl)-2-methyl-octahydrocyclopenta[c]pyrrole hydrochloride] | < 50 nM |  |
| Fc1ccc2cc(N3CC4CNCC4C3)ccc2c1.O=C(O)/C=C\C(=O)O (centres unmarked) [Example 29, 2-(6-fluoronaphthalen-2-yl)octahydropyrrolo[3,4-c]pyrrole maleate] | < 10 nM | minimal effective dose [2, 4]: 5 mg/kg |
| C1=C(c2cc3ccccc3o2)CC2CNCC12 (centres unmarked) [Example 52, 5-(Benzofuran-2-yl)-1,2,3,3a,4,6a-hexahydrocyclopenta[c]pyrrole hydrochloride] | < 200 nM |  |
| Clc1cccc(N2CC3CNCC3C2)c1Cl (centres unmarked) [Example 27, 2-(2,3-dichlorophenyl)octahydropyrrolo[3,4-c]pyrrole maleate] | < 50 nM | inhibition at 1 µM [3]: 104% |
| CN1CC2C=C(c3cc4ccccc4o3)CC2C1 (centres unmarked) [Example 59, 5-(Benzofuran-2-yl)-2-methyl-1,2,3,3a,4,6a-hexahydrocyclopenta[c]pyrrole hydrochloride] | < 50 nM |  |
| Clc1ccc(N2CC3CCNCCC3C2)cc1Cl (centres unmarked) [Example 42, 2-(3,4-dichlorophenyl)decahydropyrrolo[3,4-d]azepine maleate] | < 10 nM | inhibition at 1 µM [3]: 103% |
| CN1[C@@H]2CC[C@H]1C[C@@H](OC(=O)c1cc(Cl)cc(Cl)c1)C2 [MDL72222, reference compound] |  | inhibition at 1 µM [3]: 93% |
| C1=C(c2cc3ccccc3s2)CC2CNCC12 (centres unmarked) [Example 51, 5-(Benzothiophen-2-yl)-1,2,3,3a,4,6a-hexahydrocyclopenta[c]pyrrole hydrochloride] | < 50 nM |  |
| c1ccc2c(N3CC4CNCC4C3)csc2c1 (centres unmarked) [Example 23, 2-(Benzo[b]thiophen-3-yl)octahydropyrrolo[3,4-c]pyrrole maleate] | < 200 nM |  |
